# “And” between values parts separate entries of the source, which are not always exact repeats. Equal values may be shown once. Read-outs that look alike come from different tables or passages of the source.
# What was measured:
# [1] = Pharmacokinetic study after i.p. administration; assay type: in vivo; conditions: mice, 10 mg/kg i.p.
# Protocol: Pharmacokinetic study after i.p. and i.g administration
# mg/kg), blood samples were collected from mice under deep terminal anesthesia directly by cardiac puncture into heparinized 1.5 mL tubes at selected time intervals.
# The samples were centrifuged at 3,000 × g for 10 min (10 °C), and the plasma samples were stored at -80 °C until the HPLC analysis.
# The blood in brain vessels would interfere with the assay of actual brain tissue concentrations.
# Therefore, the animals were perfused transcardially with saline solution (0.9% NaCl) for 5 min (10 mL/min). After perfusion, the skull was opened, and the brain was carefully removed and immediately stored at -80 °C until the HPLC analysis.
# UHPLC-MS method for pharmacokinetics study
# Ultra high-performance liquid chromatography system consisting of Ultimate 3000 RS pump Dionex (Thermo Scientific, San Jose, CA, USA) coupled with high-resolution mass spectrometer with orbitrap analyzer (Q Exactive Focus, Thermo Scientific, San Jose, CA, USA) was used in quantitative analyses of 6 in plasma and brain homogenate. According to the EMA[43] and FDA[42] guidelines on Bioanalytical method validation, the method was fully validated for plasma and partially for brain homogenate.
# Before analysis, 50 μL of plasma or brain homogenate was precipitated with an internal
# standard of 200 μL acetonitrile (ACN). The mixture was vortexed for 1 min at 1,500 rpm and
# centrifuged at 12,074 g for 5 min at 20 °C. The supernatant was then transferred to an
# injection vial and analyzed.
# mm ID (Phenomenex, Torrance, CA, USA), protected with a guard column SecurityGuard
# was performed in gradient elution mode with a flow rate of 0.6 mL/min and the following
# composition of mobile phase: A) 0.1% FA in water (v/v) and B) 0.1% FA in ACN/MeOH in
# The column was kept at 45 °C during
# analysis. Samples were held at 10 °C in a light-tight autosampler unit.
# Heated-Electrospray Ionization II interface (HESI-II) in positive ion mode was used with the
# following settings: spray voltage; +3.5 kV, S-lens RF level; +70 V, capillary temperature 350
# °C, auxiliary gas heater temperature; 350 °C, sheet, and auxiliary gas flow; 45 and 15
# arbitrary units, respectively. Full MS mode was used at resolution (m/𝛥m) ̴70,000 for
# Xcalibur software (v 4.0) was used for data evaluation.
# [2] = test system: Human neuroblastoma cells SH-SY5Y; assay: MTT cell viability assay, SH-SY5Y; assay type: cell-based; conditions: Homo sapiens, 24 h, read-out: IC50 (MTT) ± SEM
# From the text: Human neuroblastoma cells SH-SY5Y and mouse microglial cells SIM-A9 were used to evaluate cell viability, intracellular RONS, and malondialdehyde (MDA; CAS No. 542–78-9).
# SH-SY5y cells were cultivated in Dulbecco's modified Eagle's medium (DMEM; Biosera, Nuaille, France) supplemented with 10% fetal bovine serum (Biosera) and 1% penicillin-streptomycin antibiotic solution (Sigma-Aldrich, St. Louis, MO, USA). The culture medium for SIM-A9 cells was further supplemented with donor horse serum (Biosera). The cells were incubated at 37 °C in a CO2 incubator (BINDER CO2 incubator CB 160, Tuttlingen, Germany) and routinely passaged by trypsinization at 75 –85% confluence.
# Colorimetric Cell Viability Assay
# The toxicological indices IC 50 used in the present study were measured utilizing 3-(4,5-dimethylthiazol-2-yl)-2,5-diphenyl-tetrazolium bromide (MTT) reduction assay after (1 picture or pasted object on this page, not shown here)
# 24 h incubation with tested compounds. […]
# incubation, the cultivation medium containing serially diluted substances was aspirated and replaced with a fresh medium containing MTT at a concentration of 0.5 mg/mL and subsequently incubated at 37 °C for 1 h. […] Cell viability was assessed spectrophotometrically by the amount of formazan produced. Absorbance was measured at 570 nm with 650 nm reference wavelength on Spark (Tecan Group Ltd, Switzerland). […]
# [3] = test system: Mouse Hippocampal Neuronal (HT-22); assay: Cell viability, PrestoBlue (neurotoxicity); assay type: cell-based; conditions: Mus musculus, HT-22, 24 h
# Protocol: (§1) Mouse Hippocampal Neuronal (HT-22) were cultured in Dulbecco's modified Eagle's Medium - high glucose (DMEM, Glutamx Thermo Fisher) supplemented with 10% inactivated fetal bovine serum heat (Thermo Fisher), 100 IU/ml penicillin (Sigma Aldrich) and 100 µg/ml streptomycin (Merck). Cells were cultured in flasks (area 75 cm2, Nunc), and incubated at 37°C, 5% CO2. For the measurement of cell viability cells were placed in a 96-well culture plate (2x10^4 cells per well, Falcon). Before the tests, cells were grown for 24 hours in the incubator (37°C, 5% CO2).
# (§2) Preparation of stock solutions of tested compounds
# (§3) Stock solutions were prepared in the concentration of 10 mM for test and reference compounds. Minimum 1 mg of each tested compound was weighed and dissolved in appropriate volume of dimethyl sulfoxide. Serial dilutions were prepared in DMSO and then the diluted compounds were transferred to PBS. Before assays eventual precipitation or opalescence was checked. All experiments were performed in duplicates, in three independent experiments. Cell viability was measured after 24 hours of incubation with tested cell line.
# (§4) Cell viability was evaluated using the Presto Blue reagent (Thermo Fisher), according to the manufacturer procedures. Following 24 hours of incubation with the tested molecule, PrestoBlue reagent was added to a microplate well in an amount equal to one tenth of the remaining medium volume. The resulting mixture was incubated for 15 minutes at 37°C, and the fluorescence intensity (EX 530; EM 580 nm) was measured in the plate reader POLARstar Omega, (BMG Labtech). The results (viability values) are provided as a percentage of live cells with respect to DMSO (control sample).
# (§5) Viability values were calculated as a percentage of live cells with respect to the control sample (DMSO). The negative control was medium without cells. IC 50 was determined by […]
# (§6) nonlinear regression analysis using GraphPad Prism 9.0 software. All values are expressed as […]
# (§7) Table S10. The viability of cells. neurotoxicity immuntoxicity
# (§8) The results (viability values) are provided as a percentage of live cells with respect to DMSO (control sample)
# (§9) Table S11. The viability of cells.
# [4] = Cell viability, PrestoBlue (neurotoxicity); assay type: cell-based; conditions: mouse, 24 h, read-out: viability, neurotoxicity X [%]
# Protocol: as §1, §2, §3, §4, §5, §6, §7, §8, §9
# SIM-A9 cells = assay: Intracellular RONS, DCFH-DA probe, SIM-A9; assay type: cell-based, mouse
compound,measurement,setting,value
O[C@H](CNCC1CC1)[C@H](Cc1ccccc1)NC1c2ccccc2-c2ccccc21 [Compound 6],Tmax,"[1]; ICR-CD1, mouse, brain, ip, 10 mg/kg, read-out: brain Tmax (converted)",0.917 h
same,Kp,"[1]; ICR-CD1, mouse, brain/plasma, ip, 10 mg/kg, read-out: Kp (AUCbrain/AUCplasma), brain-to-plasma ratio",11.1
same,MRT,"[1]; ICR-CD1, mouse, ip, plasma",3.62 h
same,k el,"[1]; ICR-CD1, mouse, ip, plasma, read-out: λz (converted)",7.5e-05 s⁻¹
same,Cmax,"[1]; ICR-CD1, mouse, plasma, ip, 10 mg/kg",430 ± 57.9 ng/mL
same,half-life,"[1]; ICR-CD1, mouse, plasma, ip, 10 mg/kg, plasma, read-out: Half-life",2.69 ± 0.237 h
same,Vd/F,"[1]; ICR-CD1, mouse, plasma, ip, 10 mg/kg, plasma, read-out: Vss/F",38.2 ± 4.47 L/kg
same,Vd/F,"[1]; ICR-CD1, mouse, plasma, ip, 10 mg/kg, plasma, read-out: Vz/F",40.9 ± 4.95 L/kg
same,Tmax,"[1]; ICR-CD1, mouse, plasma, ip, 10 mg/kg, read-out: plasma Tmax (converted)",0.389 h
same,brain AUCtotal,[1],"650,923.00 ± 152,288.00 min.ng/g"
same,plasma AUCtotal,[1],"58,804.62 ± 3,318.21 min.ng/mL"
same,CL,[1]; plasma,170 ± 10 mL/min/kg
same,Vz/F,"[1]; plasma, 10 mg/kg",~ 41 L/kg
same,half-life,"[1]; plasma, 10 mg/kg",~ 161 min
same,"Kp (AUCbrain/AUCplasma), brain-to-plasma ratio",[1]; 10 mg/kg,11
same,brain Cmax,[1]; 10 mg/kg,833.00 ± 62.32 ng/g and 833 ng/g
same,plasma Cmax,[1]; 10 mg/kg,430 ng/mL
same,IC50,[2],3.38 ± 0.04 µM
same,IC50,[3]; read-out: NEUROTOXICITY IC50,23.1 µM
same,IC50,[3]; read-out: NEUROTOXICITY pIC (converted),22.9 µM
same,"viability at 24 h, 0.1 µM","[4]; HT-22, 0.1 µM",99%
same,"viability at 24 h, 1 µM","[4]; HT-22, 1 µM",100%
same,"viability at 24 h, 10 µM","[4]; HT-22, 10 µM",99%
same,"viability at 24 h, 50 µM","[4]; HT-22, 50 µM",9.5%
same,"viability at 24 h, 100 µM","[4]; HT-22, 100 µM, vs DMSO",1.7%
same,increase in intracellular RONS,"SIM-A9 cells; IC50, ½ IC50, ¼ IC50, 1, 4, 24 h",no significant increase
same,"intracellular RONS, times lower","SIM-A9 cells; conc. = IC50, 24 h",1.63 fold
